The results in this text go back to ChEMBL document CHEMBL3822358 (J Med Chem, 2016).

Data set [1] deals with Insulin-like growth factor 1 receptor (Homo sapiens, UniProt P08069).
Data set [2] has as its target Insulin receptor (Homo sapiens, UniProt P06213).
Description: Inhibition of human InsR using myelin basic protein as substrate and [gamma-33P]ATP measured after 1 hr
The nature of data set [3]: AUC (0 to infinity) in CD rat at 3 mg/kg, iv by LC-MS/MS analysis. The conditions noted are these: CD, in vivo. In kind it is ADME, organism-based. The arrangement: dose 3 mg/kg, time infinity, route intravenous.
Data set [4] can be described thus: Clearance in CD rat at 3 mg/kg, iv by LC-MS/MS analysis. Format: ADME, organism-based. The conditions noted are these: in vivo.
Data set [5] is described as follows: Half life in CD rat at 3 mg/kg, iv by LC-MS/MS analysis. The conditions noted are these: CD, in vivo. In kind it is ADME, organism-based.
The nature of data set [6]: Volume of distribution at steady state in CD rat at 3 mg/kg, iv by LC-MS/MS analysis. Format: ADME, organism-based. The conditions noted are these: CD, in vivo, read-out: Vdss.
Data set [7] can be described thus: Cmax in CD rat at 10 mg/kg, po by LC-MS/MS analysis. In kind it is ADME, organism-based. The arrangement: dose 10 mg/kg, route oral. The conditions noted are these: in vivo.
The nature of data set [8]: AUC (0 to infinity) in CD rat at 10 mg/kg, po by LC-MS/MS analysis. In kind it is ADME, organism-based. The arrangement: dose 10 mg/kg, route oral, time infinity. The conditions noted are these: in vivo.
Data set [9] in a line: Tmax in CD rat at 10 mg/kg, po by LC-MS/MS analysis. The conditions noted are these: in vivo. In kind it is ADME, organism-based.
Data set [10] is described as follows: Half life in CD rat at 10 mg/kg, po by LC-MS/MS analysis. The conditions noted are these: in vivo. In kind it is ADME, organism-based.
Data set [11] can be described thus: Oral bioavailability in CD rat at 10 mg/kg by LC-MS/MS analysis. Format: ADME, organism-based. The conditions noted are these: in vivo.
A short description of data set [12]: Cmax in mouse at 10 mg/kg, po by LC-MS/MS analysis. On the set-up: dose 10 mg/kg, route oral. In kind it is ADME, organism-based. The conditions noted are these: in vivo.
Data set [13] in a line: AUC (0 to 24 hrs) in mouse at 10 mg/kg, po by LC-MS/MS analysis. In kind it is ADME, organism-based. The conditions noted are these: in vivo. On the set-up: time < 24 hr, dose 10 mg/kg, route oral.
A short description of data set [14]: Half life in mouse at 10 mg/kg, po by LC-MS/MS analysis. In kind it is ADME, organism-based. The conditions noted are these: in vivo.
The target of data set [15] is T1, ALK tyrosine kinase receptor (Homo sapiens, UniProt Q9UM73). The experiment in a line: Inhibition of ALK phosphorylation in mouse xenografted with human KARPAS299 cells assessed as p-ALK level at 25 mg/kg, po administered as single dose measured after 10 hrs relative to 2 hrs vehicle-treated tumor. In kind it is organism-based. On the set-up: scale not given: the % may be the effect or the level left. The conditions noted are these: KARPAS-299. For orientation: Xenograft models place foreign cells or tissue in a host animal.
Target sequence in this assay (Q9UM73 19-1620 limits assumed): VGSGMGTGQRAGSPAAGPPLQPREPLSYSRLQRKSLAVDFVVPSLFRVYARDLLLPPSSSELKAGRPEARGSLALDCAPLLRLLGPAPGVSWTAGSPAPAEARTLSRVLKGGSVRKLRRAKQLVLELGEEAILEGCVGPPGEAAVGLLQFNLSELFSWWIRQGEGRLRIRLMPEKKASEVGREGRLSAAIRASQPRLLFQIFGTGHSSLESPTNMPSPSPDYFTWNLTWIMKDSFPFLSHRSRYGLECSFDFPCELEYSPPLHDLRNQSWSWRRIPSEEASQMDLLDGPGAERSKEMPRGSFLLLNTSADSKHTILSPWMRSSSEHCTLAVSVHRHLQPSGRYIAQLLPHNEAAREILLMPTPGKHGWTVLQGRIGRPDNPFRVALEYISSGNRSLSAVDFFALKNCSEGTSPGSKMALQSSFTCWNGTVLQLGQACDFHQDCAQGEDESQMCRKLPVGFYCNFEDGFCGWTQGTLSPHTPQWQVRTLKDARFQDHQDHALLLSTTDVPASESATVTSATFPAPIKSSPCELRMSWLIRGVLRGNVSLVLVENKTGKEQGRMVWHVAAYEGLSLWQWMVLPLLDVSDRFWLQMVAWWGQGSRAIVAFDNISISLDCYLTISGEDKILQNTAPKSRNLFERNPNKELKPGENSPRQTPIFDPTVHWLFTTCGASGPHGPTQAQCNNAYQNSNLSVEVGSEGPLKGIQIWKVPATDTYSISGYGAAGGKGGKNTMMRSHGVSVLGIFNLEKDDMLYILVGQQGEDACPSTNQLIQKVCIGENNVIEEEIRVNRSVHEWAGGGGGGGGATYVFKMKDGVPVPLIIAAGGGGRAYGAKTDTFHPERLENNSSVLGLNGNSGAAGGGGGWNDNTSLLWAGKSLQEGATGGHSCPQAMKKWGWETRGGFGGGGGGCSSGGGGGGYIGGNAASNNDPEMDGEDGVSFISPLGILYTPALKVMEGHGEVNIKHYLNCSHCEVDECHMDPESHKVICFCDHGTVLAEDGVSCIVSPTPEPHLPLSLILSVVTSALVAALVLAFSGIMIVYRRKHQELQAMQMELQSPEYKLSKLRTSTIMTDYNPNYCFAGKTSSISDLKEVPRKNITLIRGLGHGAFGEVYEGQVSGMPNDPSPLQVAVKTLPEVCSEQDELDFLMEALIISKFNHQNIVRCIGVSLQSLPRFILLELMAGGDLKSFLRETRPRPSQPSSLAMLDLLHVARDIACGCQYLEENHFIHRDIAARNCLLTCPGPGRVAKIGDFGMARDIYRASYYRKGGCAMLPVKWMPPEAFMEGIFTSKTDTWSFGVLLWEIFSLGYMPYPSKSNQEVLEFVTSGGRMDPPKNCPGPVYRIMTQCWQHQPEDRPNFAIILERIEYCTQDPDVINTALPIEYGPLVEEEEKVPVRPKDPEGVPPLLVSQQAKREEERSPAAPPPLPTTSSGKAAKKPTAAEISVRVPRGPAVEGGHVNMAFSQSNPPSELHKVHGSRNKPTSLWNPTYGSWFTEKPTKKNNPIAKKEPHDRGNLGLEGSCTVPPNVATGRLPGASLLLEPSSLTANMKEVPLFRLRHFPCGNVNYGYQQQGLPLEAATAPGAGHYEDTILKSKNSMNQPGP

For data set [16], the target named is T1, ALK tyrosine kinase receptor. The experiment in a line: Inhibition of ALK phosphorylation in mouse xenografted with human KARPAS299 cells assessed as p-ALK level at 25 mg/kg, po administered as single dose measured after 16 hrs relative to 2 hrs vehicle-treated tumor. Format: organism-based. The conditions noted are these: KARPAS-299. On the set-up: scale not given: the % may be the effect or the level left.
Target sequence in this assay (Q9UM73 19-1620 limits assumed): as above

For data set [17] the target is unchanged. Kind of data set: Inhibition of ALK phosphorylation in mouse xenografted with human KARPAS299 cells assessed as p-ALK level at 25 mg/kg, po administered as single dose measured after 24 hrs relative to 2 hrs vehicle-treated tumor. In kind it is organism-based. The arrangement: scale not given: the % may be the effect or the level left. The conditions noted are these: KARPAS-299.
Target sequence in this assay (Q9UM73 19-1620 limits assumed): as above

For data set [18] the target is unchanged.
Target sequence in this assay (Q9UM73 whole entry): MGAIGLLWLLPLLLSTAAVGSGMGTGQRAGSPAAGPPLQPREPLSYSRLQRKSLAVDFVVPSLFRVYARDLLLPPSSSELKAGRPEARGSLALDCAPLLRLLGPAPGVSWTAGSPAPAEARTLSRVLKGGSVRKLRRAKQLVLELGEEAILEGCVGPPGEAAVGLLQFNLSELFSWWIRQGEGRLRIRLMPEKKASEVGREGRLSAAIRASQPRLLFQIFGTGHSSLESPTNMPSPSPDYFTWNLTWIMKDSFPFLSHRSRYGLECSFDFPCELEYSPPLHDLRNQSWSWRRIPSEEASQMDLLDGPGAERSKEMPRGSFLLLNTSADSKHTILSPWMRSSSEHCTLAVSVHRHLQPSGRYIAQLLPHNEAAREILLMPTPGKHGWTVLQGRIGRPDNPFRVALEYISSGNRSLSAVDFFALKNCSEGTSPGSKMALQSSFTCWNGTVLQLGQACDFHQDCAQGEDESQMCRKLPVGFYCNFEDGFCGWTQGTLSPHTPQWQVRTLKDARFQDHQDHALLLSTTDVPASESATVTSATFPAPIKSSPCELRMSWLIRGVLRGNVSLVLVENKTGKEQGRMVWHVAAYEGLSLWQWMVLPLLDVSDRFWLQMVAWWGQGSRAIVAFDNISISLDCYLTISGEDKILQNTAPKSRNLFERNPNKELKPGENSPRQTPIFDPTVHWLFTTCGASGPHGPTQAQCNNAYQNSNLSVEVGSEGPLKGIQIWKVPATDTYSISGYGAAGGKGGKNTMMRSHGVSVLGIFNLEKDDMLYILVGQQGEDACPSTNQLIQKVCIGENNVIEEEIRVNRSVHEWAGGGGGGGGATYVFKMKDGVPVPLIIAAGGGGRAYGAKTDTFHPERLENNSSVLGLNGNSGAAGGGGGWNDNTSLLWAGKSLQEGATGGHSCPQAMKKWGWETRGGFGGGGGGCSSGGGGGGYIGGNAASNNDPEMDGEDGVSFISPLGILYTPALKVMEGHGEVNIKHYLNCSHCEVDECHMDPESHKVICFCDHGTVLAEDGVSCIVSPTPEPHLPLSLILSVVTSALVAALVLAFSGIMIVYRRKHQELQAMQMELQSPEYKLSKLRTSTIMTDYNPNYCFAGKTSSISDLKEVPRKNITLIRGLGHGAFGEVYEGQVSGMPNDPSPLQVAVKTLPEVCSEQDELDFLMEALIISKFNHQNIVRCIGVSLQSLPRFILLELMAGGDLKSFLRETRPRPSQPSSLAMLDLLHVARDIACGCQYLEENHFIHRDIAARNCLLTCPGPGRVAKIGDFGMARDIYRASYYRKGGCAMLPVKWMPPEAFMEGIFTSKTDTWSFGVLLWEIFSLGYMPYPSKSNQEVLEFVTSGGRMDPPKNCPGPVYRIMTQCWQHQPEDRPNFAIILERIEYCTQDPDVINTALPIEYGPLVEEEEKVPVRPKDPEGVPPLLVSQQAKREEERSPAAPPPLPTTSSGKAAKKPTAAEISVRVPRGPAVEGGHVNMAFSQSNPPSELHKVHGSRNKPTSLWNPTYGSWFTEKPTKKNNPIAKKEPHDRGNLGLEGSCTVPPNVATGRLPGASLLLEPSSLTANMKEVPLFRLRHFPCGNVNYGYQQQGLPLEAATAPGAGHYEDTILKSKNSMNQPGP
Description: Inhibition of human ALK using poly[Glu:Tyr] (4:1) as substrate and [gamma-33P]ATP measured after 1 hr
Data set [19] is described as follows: cells. The conditions noted are these: Homo sapiens, KARPAS-299, 72 h.
Description: Antiproliferative activity against human ALK-positive KARPAS299 cells assessed as reduction in cell viability measured after 72 hrs by CellTiter 96 aqueous one solution cell proliferation assay
The nature of data set [20]: cells. The conditions noted are these: Homo sapiens, U-937, 72 h.
Description: Antiproliferative activity against human ALK-negative U937 cells assessed as reduction in cell viability measured after 72 hrs by CellTiter 96 aqueous one solution cell proliferation assay
Data set [21] can be described thus: animal or person. The conditions noted are these: Homo sapiens, KARPAS-299, po, 312 h, read-out: TGI.
Description: Antitumor activity against human KARPAS299 cells expressing NMP-ALK fusion protein xenografted in SCID/beige mouse assessed as tumor growth inhibition at 10 mg/kg, po administered once daily for 13 days relative to untreated control
Data set [22] can be described thus: animal or person. The conditions noted are these: Homo sapiens, KARPAS-299, po, 312 h, read-out: TGI. The source holds these as a separate data set.
Description: Antitumor activity against human KARPAS299 cells expressing NMP-ALK fusion protein xenografted in SCID/beige mouse assessed as tumor growth inhibition at 25 mg/kg, po administered once daily for 13 days relative to untreated control
Data set [23] in a line: animal or person. The conditions noted are these: Homo sapiens, KARPAS-299, po, 312 h, read-out: TGI. The source holds these as a separate data set.
Description: Antitumor activity against human KARPAS299 cells expressing NMP-ALK fusion protein xenografted in SCID/beige mouse assessed as tumor growth inhibition at 50 mg/kg, po administered once daily for 13 days relative to untreated control
For data set [24], the target named is T1, ALK tyrosine kinase receptor. The experiment in a line: Inhibition of ALK phosphorylation in mouse xenografted with human KARPAS299 cells assessed as p-ALK level at 25 mg/kg, po administered as single dose measured after 8 hrs relative to 2 hrs vehicle-treated tumor. Format: organism-based. The arrangement: scale not given: the % may be the effect or the level left. The conditions noted are these: KARPAS-299.
Target sequence in this assay (Q9UM73 19-1620 limits assumed): as the sequence (Q9UM73 19-1620 limits assumed) above

Insulin-like growth factor 1 receptor, sequence (P08069 31-736 limits assumed): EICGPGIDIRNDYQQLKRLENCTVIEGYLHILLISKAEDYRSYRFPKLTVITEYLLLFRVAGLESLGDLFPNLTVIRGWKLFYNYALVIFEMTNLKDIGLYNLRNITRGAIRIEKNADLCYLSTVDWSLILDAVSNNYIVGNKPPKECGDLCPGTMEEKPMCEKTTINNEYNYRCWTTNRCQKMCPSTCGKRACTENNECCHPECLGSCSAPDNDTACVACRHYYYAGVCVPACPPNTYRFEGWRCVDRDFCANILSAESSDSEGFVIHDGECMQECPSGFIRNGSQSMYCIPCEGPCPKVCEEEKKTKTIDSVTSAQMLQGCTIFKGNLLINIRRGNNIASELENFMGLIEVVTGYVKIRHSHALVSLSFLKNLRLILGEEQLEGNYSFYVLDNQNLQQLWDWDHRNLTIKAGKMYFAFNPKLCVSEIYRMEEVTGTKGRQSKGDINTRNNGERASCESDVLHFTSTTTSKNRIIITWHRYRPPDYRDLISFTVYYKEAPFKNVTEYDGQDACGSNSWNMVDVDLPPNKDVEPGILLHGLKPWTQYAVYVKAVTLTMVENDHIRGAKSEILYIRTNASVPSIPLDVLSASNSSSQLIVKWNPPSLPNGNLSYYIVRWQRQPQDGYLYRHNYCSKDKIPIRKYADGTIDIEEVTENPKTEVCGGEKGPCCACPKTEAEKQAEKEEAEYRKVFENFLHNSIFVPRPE
Insulin-like growth factor 1 receptor, sequence (P08069 741-1367 limits assumed): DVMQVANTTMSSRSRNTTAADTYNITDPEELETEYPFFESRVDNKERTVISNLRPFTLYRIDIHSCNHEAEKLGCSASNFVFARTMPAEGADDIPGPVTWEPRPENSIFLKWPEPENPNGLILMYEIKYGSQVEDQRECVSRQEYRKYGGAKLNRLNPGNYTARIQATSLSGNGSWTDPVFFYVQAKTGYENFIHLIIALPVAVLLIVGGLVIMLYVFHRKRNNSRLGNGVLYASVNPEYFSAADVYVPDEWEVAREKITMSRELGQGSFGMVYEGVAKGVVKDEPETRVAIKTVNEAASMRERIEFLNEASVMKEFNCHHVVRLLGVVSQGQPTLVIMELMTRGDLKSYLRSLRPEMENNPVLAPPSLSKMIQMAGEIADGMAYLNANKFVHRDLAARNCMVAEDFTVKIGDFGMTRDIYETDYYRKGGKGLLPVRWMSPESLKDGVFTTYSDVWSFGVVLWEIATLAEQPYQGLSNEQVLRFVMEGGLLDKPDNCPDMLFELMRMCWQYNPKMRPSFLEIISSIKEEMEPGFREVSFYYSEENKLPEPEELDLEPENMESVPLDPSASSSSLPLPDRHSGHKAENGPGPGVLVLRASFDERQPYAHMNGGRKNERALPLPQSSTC

On to `COc1cc(N2CCC(CN3CCC3)CC2)ccc1Nc1ncc(Cl)c(Nc2ccccc2P(C)(C)=O)n1`, for which the concentration for half-maximal inhibition (IC50) (usually the concentration that gives 50% inhibition) in data set [1] stood at 31.6 nM; in data set [2], 130 nM; in [18] it was 0.88 nM; in data set [19], 29.9 nM; in data set [20], 2720 nM. Moreover, the AUC(0-inf) (commonly the area under the concentration-time curve extrapolated to infinity) in data set [3] was determined as 8620 ng·h/mL; in data set [8] it was 4570 ng·h/mL. Besides, in data set [4], the clearance (in general, the volume of plasma or blood freed of the substance per unit of time) was 5.83 mL/min/kg. For the same molecule, the results for the half-life in data set [5], in [10] and in data set [14] were 3.6 h, 3.4 h and 3.1 h, respectively. The Vd in data set [6] amounted to 1.46 L/kg. Moreover, the Cmax (usually the maximum level reached in the sampled fluid or tissue) is 353 ng/mL in [7] and 498 ng/mL in data set [12]. Besides, the Tmax (as a rule, the time at which the peak concentration occurs) in data set [9] was 6 h. Also, in [11], the bioavailability turned out to be 16%. In addition, the AUC(0-t) (in general, exposure summed from dosing to a finite time, without extrapolation to infinity) at 24 h in [13] worked out at 6490 ng·h/mL. The figures for the Activity in data set [15], in data set [16] and in data set [17] were 13%, 60% and 104%, respectively.
`COc1cc(N2CCN(CCO)CC2)ccc1Nc1ncc(Cl)c(Nc2ccccc2P(C)(C)=O)n1`: the IC50 came to 12.8 nM in data set [1]; 28.1 nM in [2]; 0.18 nM in data set [18]; 37.6 nM in [19]; 1800 nM in data set [20]. Also, the total exposure AUC(0-inf) in [3] came to 1330 ng·h/mL; in data set [8], 777 ng·h/mL. In data set [4], this molecule showed a clearance of 35.8 mL/min/kg. Besides, the results for the half-life in data set [5] and in data set [10] were 8.4 h and 2.9 h, respectively. In addition, in [6], the Vd is 9.51 L/kg. The same molecule came in with a peak concentration (Cmax) in data set [7] of 75.7 ng/mL. The Tmax in [9] is 4 h. Also, in [11], the bioavailability came to 18%.
As to `COc1cc(N2CCC(N3CCCC3)CC2)ccc1Nc1ncc(Cl)c(Nc2ccccc2P(C)(C)=O)n1`, the IC50 came to 20.3 nM in [1]; 85.3 nM in [2]; 0.53 nM in data set [18]; 21.1 nM in [19]; 1680 nM in [20]. Moreover, the AUC(0-inf) in [3] worked out at 2170 ng·h/mL; in data set [8], 1350 ng·h/mL. In data set [4], this molecule had a clearance of 22.7 mL/min/kg. For the same molecule, the values for the half-life in data set [5], in [10] and in data set [14] were 4.7 h, 3.7 h and 3.1 h, respectively. In data set [6], the Vd is 6.61 L/kg. Also, the Cmax in [7] came to 109 ng/mL; in data set [12] it was 411 ng/mL. Also, the Tmax in data set [9] turned out to be 4 h. In data set [11], the bioavailability is 19%. The AUC(0-t) at 24 h in data set [13] is 3230 ng·h/mL. For the same molecule, the Activity in [15] is 2%; in [16], 39%; in data set [17] it was 51%. In data set [21], the inhibition in vivo at 10 mg/kg worked out at 76%. Also, the inhibition in vivo at 25 mg/kg in data set [22] was found to be 52%. Moreover, in [23], the inhibition in vivo at 50 mg/kg turned out to be 26%.
Take `COc1cc(OC2CCN(C)CC2)ccc1Nc1ncc(Cl)c(Nc2ccccc2P(C)(C)=O)n1`: the concentration for half-maximal inhibition (IC50) in data set [1] is 86.5 nM; in [2], 343 nM; in data set [18], 0.54 nM; in data set [19] it was 55.5 nM; in data set [20], 4520 nM. Moreover, the figures for the total exposure AUC(0-inf) in [3] and in [8] were 5040 ng·h/mL and 9220 ng·h/mL, respectively. The clearance in [4] is 9.83 mL/min/kg. Further, the half-life (usually the time needed for the level to fall by half in the phase considered) in data set [5] was 3.6 h; in [10], 3.9 h; in data set [14], 1.6 h. In addition, in data set [6], the Vd is 2.89 L/kg. Moreover, the Cmax in data set [7] came out at 659 ng/mL; in data set [12], 184 ng/mL. The Tmax in data set [9] is 4 h. For the same molecule, in [11], the bioavailability stood at 55%. The molecule further came in with an area under the curve AUC(0-t) at 24 h in data set [13] of 951 ng·h/mL. Also, the results for the Activity in data set [15], in [16] and in [17] were 23%, 125% and 160%, respectively.
On to `COc1cc(N2CCC(O)CC2)ccc1Nc1ncc(Cl)c(Nc2ccccc2P(C)(C)=O)n1`, for which the IC50 amounted to 26.9 nM in [1]; 171 nM in data set [2]; 0.36 nM in [18]; 70.4 nM in data set [19]; 7230 nM in data set [20]. The values for the AUC(0-inf) in data set [3] and in data set [8] were 4550 ng·h/mL and 9720 ng·h/mL, respectively. In addition, in data set [4], the clearance is 10.7 mL/min/kg. Further, the half-life was 5.6 h in [5], 2.7 h in data set [10] and 2.2 h in [14]. The Vd in data set [6] is 2.74 L/kg. Moreover, the values for the Cmax in data set [7] and in data set [12] were 772 ng/mL and 2940 ng/mL, respectively. For the same molecule, the Tmax in data set [9] stood at 0.25 h. In data set [11], the bioavailability stood at 64%. In data set [13], this molecule had an AUC(0-t) at 24 h of 13300 ng·h/mL. The Activity in [16] is 25%; in data set [17], 168%; in data set [24] it was 41%. The inhibition in vivo at 10 mg/kg in data set [21] was found to be 96%. In data set [22], the inhibition in vivo at 25 mg/kg came to 85%. Besides, in [23], the inhibition in vivo at 50 mg/kg was 67%.
For the molecule `COc1cc(N2CCC(N3CCOCC3)CC2)ccc1Nc1ncc(Cl)c(Nc2ccccc2P(C)(C)=O)n1`, the IC50 in data set [1] came out at 47.3 nM; in data set [2], 270 nM; in [18] it was 0.49 nM; in data set [19], 61 nM; in [20], 5680 nM. The values for the AUC(0-inf) in data set [3] and in [8] were 17900 ng·h/mL and 43600 ng·h/mL, respectively. The molecule further had a clearance in [4] of 2.83 mL/min/kg. Further, the half-life in data set [5] was 3.9 h; in data set [10] it was 6.8 h. For the same molecule, in data set [6], the Vd came to 0.78 L/kg. In data set [7], this molecule registered a Cmax of 2840 ng/mL. Moreover, the time to peak (Tmax) in [9] is 2 h. Moreover, the bioavailability in [11] amounted to 73%. The Activity in [15] came to 15%; in data set [16], 52%; in data set [17], 50%.
`COc1cc(C2CCN(C)CC2)ccc1Nc1ncc(Cl)c(Nc2ccccc2P(C)(C)=O)n1`: the half-inhibitory concentration (IC50) in [1] was found to be 8.2 nM; in data set [2], 57.2 nM; in [18], 0.38 nM; in [19] it was 19.2 nM; in [20] it was 3560 nM. Further, the AUC(0-inf) worked out at 1550 ng·h/mL in data set [3] and 5670 ng·h/mL in [8]. This molecule also had a clearance in data set [4] of 31.8 mL/min/kg. Moreover, the half-life in [5] was 4 h; in data set [10], 2.5 h; in data set [14], 5 h. For the same molecule, the Vd in [6] amounted to 8.55 L/kg. Moreover, the Cmax was 601 ng/mL in [7] and 421 ng/mL in data set [12]. Moreover, the Tmax in data set [9] is 4 h. Also, the bioavailability in [11] turned out to be 110%. The AUC(0-t) at 24 h in data set [13] was determined as 3450 ng·h/mL. Further, the figures for the Activity in data set [15], in [16] and in data set [17] were 1%, 69% and 118%, respectively.
